Measured values reported in patent US10344060B2 (priority 2013, dated 2019).
Where “and” joins values, the source holds several entries; their conditions need not be identical. Equal values may be shown once. Read-outs that look alike come from different tables or passages of the source.

Columns and labels:
Experiment in all cases: cell-based
hNav1.5 = hNav1.5 (Homo sapiens, UniProt Q14524); conditions: read-out: IC50 (μM) Nav1.5
hNav1.7 = hNav1.7 (Homo sapiens, UniProt Q15858); conditions: for IC50: read-out: IC50 (μM) Nav1.7
Sequence of hNav1.7 (Q15858 whole entry): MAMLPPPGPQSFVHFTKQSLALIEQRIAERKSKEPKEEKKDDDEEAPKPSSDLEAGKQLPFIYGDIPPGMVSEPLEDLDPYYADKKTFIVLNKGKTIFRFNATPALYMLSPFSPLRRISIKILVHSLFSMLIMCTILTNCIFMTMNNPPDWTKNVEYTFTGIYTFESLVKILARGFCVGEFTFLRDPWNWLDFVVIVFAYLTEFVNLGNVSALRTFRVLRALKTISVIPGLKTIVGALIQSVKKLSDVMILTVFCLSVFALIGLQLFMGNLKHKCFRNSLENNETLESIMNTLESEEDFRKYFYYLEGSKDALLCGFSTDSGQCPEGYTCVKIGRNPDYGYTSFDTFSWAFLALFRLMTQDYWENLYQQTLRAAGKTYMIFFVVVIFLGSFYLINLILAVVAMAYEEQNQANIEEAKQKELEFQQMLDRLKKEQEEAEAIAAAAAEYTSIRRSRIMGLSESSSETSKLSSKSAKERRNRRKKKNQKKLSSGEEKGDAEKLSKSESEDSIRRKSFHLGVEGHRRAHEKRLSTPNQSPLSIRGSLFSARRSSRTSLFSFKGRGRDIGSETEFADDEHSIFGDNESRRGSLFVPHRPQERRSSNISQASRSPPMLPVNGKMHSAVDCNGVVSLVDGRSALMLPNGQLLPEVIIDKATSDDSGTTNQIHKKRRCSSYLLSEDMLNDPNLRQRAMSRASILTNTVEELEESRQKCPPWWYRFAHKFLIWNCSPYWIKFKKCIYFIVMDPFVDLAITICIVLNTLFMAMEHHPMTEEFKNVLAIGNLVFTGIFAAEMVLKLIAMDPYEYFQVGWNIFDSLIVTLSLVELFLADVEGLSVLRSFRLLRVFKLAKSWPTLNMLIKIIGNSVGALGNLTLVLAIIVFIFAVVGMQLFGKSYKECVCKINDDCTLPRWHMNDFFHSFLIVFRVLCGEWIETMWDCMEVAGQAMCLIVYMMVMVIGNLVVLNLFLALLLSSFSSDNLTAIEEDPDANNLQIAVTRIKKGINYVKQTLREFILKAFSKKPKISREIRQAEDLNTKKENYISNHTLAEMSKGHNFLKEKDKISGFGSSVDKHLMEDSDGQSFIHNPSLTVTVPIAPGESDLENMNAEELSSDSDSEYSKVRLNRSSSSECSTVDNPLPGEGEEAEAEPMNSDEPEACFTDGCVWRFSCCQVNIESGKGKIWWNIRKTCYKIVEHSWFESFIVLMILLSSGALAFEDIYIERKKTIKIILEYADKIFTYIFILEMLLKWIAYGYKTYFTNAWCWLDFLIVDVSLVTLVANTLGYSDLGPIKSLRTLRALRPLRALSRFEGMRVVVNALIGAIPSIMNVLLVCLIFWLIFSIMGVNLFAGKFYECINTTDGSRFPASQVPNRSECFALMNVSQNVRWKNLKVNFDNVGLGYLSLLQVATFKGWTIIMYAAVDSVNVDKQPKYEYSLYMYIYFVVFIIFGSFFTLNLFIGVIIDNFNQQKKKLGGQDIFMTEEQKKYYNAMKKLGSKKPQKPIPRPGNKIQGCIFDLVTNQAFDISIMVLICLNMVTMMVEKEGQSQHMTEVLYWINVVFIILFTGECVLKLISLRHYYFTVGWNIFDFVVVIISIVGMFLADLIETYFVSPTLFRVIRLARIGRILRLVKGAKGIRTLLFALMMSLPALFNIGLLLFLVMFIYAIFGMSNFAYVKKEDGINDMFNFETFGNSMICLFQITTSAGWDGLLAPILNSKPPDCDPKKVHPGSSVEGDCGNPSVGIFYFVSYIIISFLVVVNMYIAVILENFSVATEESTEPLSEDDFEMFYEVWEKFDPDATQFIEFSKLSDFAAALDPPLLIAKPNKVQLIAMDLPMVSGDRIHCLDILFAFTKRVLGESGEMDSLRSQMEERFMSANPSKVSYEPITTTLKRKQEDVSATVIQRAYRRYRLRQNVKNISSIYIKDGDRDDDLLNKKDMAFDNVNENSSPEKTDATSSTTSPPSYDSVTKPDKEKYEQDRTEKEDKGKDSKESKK

hNav1.3 = hNav1.3 (Homo sapiens, UniProt Q9NY46); conditions: read-out: IC50 (μM) Nav1.3
hNav1.4 = hNav1.4 (Homo sapiens, UniProt P35499); format: cell-based; conditions: for IC50: read-out: IC50 (μM) Nav1.4; for Nav1.4/Nav1.7: ratio of IonWorks Quattro IC50 values
Sequence of hNav1.4 (P35499 whole entry): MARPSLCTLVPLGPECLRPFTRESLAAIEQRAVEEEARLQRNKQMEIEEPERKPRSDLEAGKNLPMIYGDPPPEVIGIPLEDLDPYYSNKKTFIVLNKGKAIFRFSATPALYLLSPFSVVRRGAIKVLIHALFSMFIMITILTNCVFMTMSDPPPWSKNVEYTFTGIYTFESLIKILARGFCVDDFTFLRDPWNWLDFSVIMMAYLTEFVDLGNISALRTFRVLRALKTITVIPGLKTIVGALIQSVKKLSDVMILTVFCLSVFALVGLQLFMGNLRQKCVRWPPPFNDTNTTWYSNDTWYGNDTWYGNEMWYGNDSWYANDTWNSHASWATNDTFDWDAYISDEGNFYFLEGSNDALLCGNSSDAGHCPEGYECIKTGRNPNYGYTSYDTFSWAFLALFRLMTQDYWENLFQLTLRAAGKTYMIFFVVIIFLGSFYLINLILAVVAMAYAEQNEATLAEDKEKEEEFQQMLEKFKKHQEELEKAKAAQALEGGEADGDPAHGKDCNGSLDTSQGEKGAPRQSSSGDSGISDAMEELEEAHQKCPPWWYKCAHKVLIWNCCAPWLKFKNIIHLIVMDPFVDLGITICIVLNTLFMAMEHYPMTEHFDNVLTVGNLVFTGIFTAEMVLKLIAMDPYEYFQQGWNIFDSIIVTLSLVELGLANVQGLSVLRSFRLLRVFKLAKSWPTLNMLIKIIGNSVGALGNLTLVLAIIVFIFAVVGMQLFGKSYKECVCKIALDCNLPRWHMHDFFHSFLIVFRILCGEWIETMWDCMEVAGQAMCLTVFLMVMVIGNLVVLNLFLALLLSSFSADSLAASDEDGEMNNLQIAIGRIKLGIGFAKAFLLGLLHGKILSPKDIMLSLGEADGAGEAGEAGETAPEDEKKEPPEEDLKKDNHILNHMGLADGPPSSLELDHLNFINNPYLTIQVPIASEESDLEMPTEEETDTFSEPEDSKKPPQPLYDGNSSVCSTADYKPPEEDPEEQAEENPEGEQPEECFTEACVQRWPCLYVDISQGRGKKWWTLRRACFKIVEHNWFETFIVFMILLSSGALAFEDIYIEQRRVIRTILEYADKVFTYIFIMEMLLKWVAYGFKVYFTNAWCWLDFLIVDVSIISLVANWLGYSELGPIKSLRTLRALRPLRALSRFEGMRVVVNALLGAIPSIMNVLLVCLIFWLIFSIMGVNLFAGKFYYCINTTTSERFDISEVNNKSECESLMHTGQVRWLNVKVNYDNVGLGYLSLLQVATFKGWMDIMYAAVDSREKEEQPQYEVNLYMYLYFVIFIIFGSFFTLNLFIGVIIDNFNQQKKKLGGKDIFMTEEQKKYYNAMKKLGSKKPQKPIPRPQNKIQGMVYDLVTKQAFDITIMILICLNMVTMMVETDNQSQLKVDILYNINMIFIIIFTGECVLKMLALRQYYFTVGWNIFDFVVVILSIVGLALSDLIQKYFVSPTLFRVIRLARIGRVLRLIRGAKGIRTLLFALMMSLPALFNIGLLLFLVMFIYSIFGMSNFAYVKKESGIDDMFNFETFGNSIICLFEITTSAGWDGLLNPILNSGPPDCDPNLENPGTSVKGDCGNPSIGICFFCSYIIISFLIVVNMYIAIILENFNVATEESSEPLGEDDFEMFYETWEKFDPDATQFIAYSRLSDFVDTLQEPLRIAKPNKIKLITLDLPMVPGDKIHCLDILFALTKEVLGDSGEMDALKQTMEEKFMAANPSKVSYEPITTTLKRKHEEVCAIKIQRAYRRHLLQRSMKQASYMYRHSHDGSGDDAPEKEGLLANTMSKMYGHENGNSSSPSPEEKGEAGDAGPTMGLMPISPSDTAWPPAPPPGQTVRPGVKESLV

Row | Structure (SMILES) | IC50 (hNav1.5) | Nav1.4/Nav1.7 (hNav1.7; ratio of IonWorks Quattro IC50 values, Nav1.4 over Nav1.7) | IC50 (hNav1.7) | IC50 (hNav1.3) | IC50 (hNav1.4) | IC50 (hNav1.5; IonWorks Quattro, Table 6) | IC50 (hNav1.3; IonWorks Quattro, Table 6) | IC50 (hNav1.4; IonWorks Quattro, Table 6) | Nav1.4/Nav1.7 (hNav1.4; Table 6) | IC50 (hNav1.5; IonWorks Quattro, Table 9) | IC50 (hNav1.7; IonWorks Quattro, […]) | IC50 (hNav1.3; IonWorks Quattro, Table 9) | IC50 (hNav1.4; IonWorks Quattro, Table 9)
1 | CC[C@H](NC(=O)[C@H](CCCCN)NC(=O)[C@H](CCCNC(=N)N)NC(=O)[C@@H]1CSSC[C@@H]2NC(=O)[C@H](C)NC(=O)[C@H](CCCNC(=N)N)NC(=O)[C@H](CCCCN)NC(=O)[C@H](CO)NC(=O)[C@H](CC(=O)O)NC(=O)[C@@H]3CSSC[C@H](NC(=O)[C@H](CCC(=O)O)NC(=O)[C@H](CC(C)C)NC(=O)CNC(=O)[C@H](CCC(=O)O)NC(=O)[C@H](CSSC[C@H](NC(=O)[C@@H](N)Cc4ccc(O)cc4)C(=O)N[C@@H](CCC(N)=O)C(=O)N[C@@H](CCCCN)C(=O)N[C@@H](Cc4c[nH]c5ccccc45)C(=O)N[C@@H](CCSC)C(=O)N[C@@H](Cc4c[nH]c5ccccc45)C(=O)N[C@@H]([C@@H](C)O)C(=O)N3)NC2=O)C(=O)N[C@@H](CCCCN)C(=O)N[C@@H](CC(C)C)C(=O)N[C@@H](Cc2c[nH]c3ccccc23)C(=O)N1)C(=O)N[C@H](C(N)=O)[C@@H](C)CC [compound 130] | 8.2 µM and 11.1 µM | 29 and 24 | 0.17 µM and 0.21 µM | > 5 µM | > 5 µM | – | – | – | – | – | – | – | –
2 | CC[C@H](C)[C@H](NC(=O)[C@@H](NC(=O)[C@H](CCCCN)NC(=O)[C@H](CCCNC(=N)N)NC(=O)[C@@H]1CSSC[C@@H]2NC(=O)[C@H](C)NC(=O)[C@H](CCCNC(=N)N)NC(=O)[C@H](CCCCN)NC(=O)[C@H](CO)NC(=O)[C@H](CC(=O)O)NC(=O)[C@@H]3CSSC[C@H](NC(=O)[C@H](CCCNC(=N)N)NC(=O)[C@H](CC(C)C)NC(=O)CNC(=O)[C@H](CCC(=O)O)NC(=O)[C@H](CSSC[C@H](NC(=O)[C@@H](N)Cc4ccc(O)cc4)C(=O)N[C@@H](CCC(N)=O)C(=O)N[C@@H](CCCCN)C(=O)N[C@@H](Cc4c[nH]c5ccccc45)C(=O)N[C@@H](CCSC)C(=O)N[C@@H](Cc4c[nH]c5ccccc45)C(=O)N[C@@H]([C@@H](C)O)C(=O)N3)NC2=O)C(=O)N[C@@H](CCCCN)C(=O)N[C@@H](CCCCN)C(=O)N[C@@H](Cc2c[nH]c3ccccc23)C(=O)N1)[C@@H](C)CC)C(N)=O [compound 85] | – | – | 0.24 µM | – | – | 4.1 µM | 0.14 µM | 0.29 µM | 1 | – | – | – | –
3 | CC[C@H](C)[C@H](NC(=O)[C@@H](NC(=O)[C@H](CCCCN)NC(=O)[C@H](CCCNC(=N)N)NC(=O)[C@@H]1CSSC[C@@H]2NC(=O)[C@H](C)NC(=O)[C@H](CCCNC(=N)N)NC(=O)[C@H](CCCCN)NC(=O)[C@H](CO)NC(=O)[C@H](CC(=O)O)NC(=O)[C@@H]3CSSC[C@H](NC(=O)[C@H](CCCNC(=N)N)NC(=O)[C@H](CC(C)C)NC(=O)CNC(=O)[C@H](CCC(=O)O)NC(=O)[C@H](CSSC[C@H](NC(=O)[C@@H](N)Cc4ccc(O)cc4)C(=O)N[C@@H](CCC(N)=O)C(=O)N[C@@H](CCCCN)C(=O)N[C@@H](Cc4c[nH]c5ccccc45)C(=O)N[C@@H](CCSC)C(=O)N[C@@H](Cc4c[nH]c5ccccc45)C(=O)N[C@@H](CCCNC(=N)N)C(=O)N3)NC2=O)C(=O)N[C@@H](CCCCN)C(=O)N[C@@H](CC(C)C)C(=O)N[C@@H](Cc2c[nH]c3ccccc23)C(=O)N1)[C@@H](C)CC)C(N)=O [compound 96] | – | – | 0.018 µM | – | – | 1.7 µM | 0.05 µM | 0.14 µM | 7 | – | – | – | –
4 | CCCC[C@@H]1NC(=O)[C@H](Cc2c[nH]c3ccccc23)NC(=O)[C@H](CCCCN)NC(=O)[C@H](CCC(N)=O)NC(=O)[C@@H](NC(=O)[C@@H](N)Cc2ccc(O)cc2)CSSC[C@@H]2NC(=O)[C@@H]3CSSC[C@@H](C(=O)N[C@@H](CCCNC(=N)N)C(=O)N[C@@H](CCCCN)C(=O)N[C@H](C(=O)N[C@H](C(N)=O)[C@@H](C)CC)[C@@H](C)CC)NC(=O)[C@H](Cc4c[nH]c5ccccc45)NC(=O)[C@H](CC(C)C)NC(=O)[C@H](CCCCN)NC(=O)[C@H](CSSC[C@H](NC(=O)[C@H]([C@@H](C)O)NC(=O)[C@H](Cc4cn(CCCOCCOCCOCCOCCOCCOCCOCCOCCOCCOCCN)nn4)NC1=O)C(=O)N[C@@H](CC(=O)O)C(=O)N[C@@H](CO)C(=O)N[C@@H](CCCCN)C(=O)N[C@@H](CCCNC(=N)N)C(=O)N[C@@H](C)C(=O)N3)NC(=O)[C@H](CCCNC(=N)N)NC(=O)[C@H](CC(C)C)NC(=O)CNC(=O)[C@H](CCC(=O)O)NC2=O [compound 253] | – | – | – | – | – | – | – | – | – | > 7 µM | 4.6 µM | > 7 µM | > 7 µM
5 | CC[C@H](C)[C@H](NC(=O)[C@@H](NC(=O)[C@H](CCCCN)NC(=O)[C@H](CCCNC(=N)N)NC(=O)[C@@H]1CSSC[C@@H]2NC(=O)[C@H](C)NC(=O)[C@H](CCCNC(=N)N)NC(=O)[C@H](CCCCN)NC(=O)[C@H](CO)NC(=O)[C@H](CC(=O)O)NC(=O)[C@@H]3CSSC[C@H](NC(=O)[C@H](CCCNC(=N)N)NC(=O)[C@H](CC(C)C)NC(=O)CNC(=O)[C@H](CCC(=O)O)NC(=O)[C@H](CSSC[C@H](NC(=O)[C@@H](N)Cc4ccc(O)cc4)C(=O)N[C@@H](CCC(N)=O)C(=O)N[C@@H](CCCCN)C(=O)N[C@@H](Cc4c[nH]c5ccccc45)C(=O)N[C@@H](CCSC)C(=O)N[C@@H](Cc4c[nH]c5ccccc45)C(=O)N[C@@H]([C@@H](C)O)C(=O)N3)NC2=O)C(=O)N[C@@H](CCCCN)C(=O)N[C@@H](CC(C)C)C(=O)N[C@@H](Cc2cccc3ccccc23)C(=O)N1)[C@@H](C)CC)C(N)=O [compound 43] | – | – | 0.075 µM | – | – | > 5 µM | 0.46 µM | 0.33 µM | 4 | – | – | – | –
6 | CC[C@H](C)[C@H](NC(=O)[C@@H](NC(=O)[C@H](CCCCN)NC(=O)[C@H](CCCNC(=N)N)NC(=O)[C@@H]1CSSC[C@@H]2NC(=O)[C@H](C)NC(=O)[C@H](CCCNC(=N)N)NC(=O)[C@H](CCCCN)NC(=O)[C@H](CO)NC(=O)[C@H](CC(=O)O)NC(=O)[C@@H]3CSSC[C@H](NC(=O)[C@H](CCCNC(=N)N)NC(=O)[C@H](CC(C)C)NC(=O)[C@H](C)NC(=O)[C@H](CCC(=O)O)NC(=O)[C@H](CSSC[C@H](NC(=O)[C@@H](N)Cc4ccc(O)cc4)C(=O)N[C@@H](CCC(N)=O)C(=O)N[C@@H](CCCCN)C(=O)N[C@@H](Cc4c[nH]c5ccccc45)C(=O)N[C@@H](CCSC)C(=O)N[C@@H](Cc4c[nH]c5ccccc45)C(=O)N[C@@H]([C@@H](C)O)C(=O)N3)NC2=O)C(=O)N[C@@H](CCCCN)C(=O)N[C@@H](CC(C)C)C(=O)N[C@@H](Cc2c[nH]c3ccccc23)C(=O)N1)[C@@H](C)CC)C(N)=O [compound 15] | – | – | 0.04 µM | – | – | > 5 µM | 0.24 µM | 0.26 µM | 7 | – | – | – | –
7 | CC[C@H](C)[C@H](NC(=O)[C@@H](NC(=O)[C@H](CCCCN)NC(=O)[C@H](CCCNC(=N)N)NC(=O)[C@@H]1CSSC[C@@H]2NC(=O)[C@H](C)NC(=O)[C@H](CCCNC(=N)N)NC(=O)[C@H](CCCNC(=N)N)NC(=O)[C@H](CO)NC(=O)[C@H](CC(=O)O)NC(=O)[C@@H]3CSSC[C@H](NC(=O)[C@H](CCCNC(=N)N)NC(=O)[C@H](CC(C)C)NC(=O)CNC(=O)[C@H](CCC(=O)O)NC(=O)[C@H](CSSC[C@H](NC(=O)[C@@H](N)Cc4ccc(O)cc4)C(=O)N[C@@H](CCC(N)=O)C(=O)N[C@@H](CCCCN)C(=O)N[C@@H](Cc4c[nH]c5ccccc45)C(=O)N[C@@H](CCSC)C(=O)N[C@@H](Cc4c[nH]c5ccccc45)C(=O)N[C@@H]([C@@H](C)O)C(=O)N3)NC2=O)C(=O)N[C@@H](CCCCN)C(=O)N[C@@H](CC(C)C)C(=O)N[C@@H](Cc2c[nH]c3ccccc23)C(=O)N1)[C@@H](C)CC)C(N)=O [compound 99] | – | – | 0.008 µM | – | – | 2.5 µM | 0.05 µM | 0.15 µM | 19 | – | – | – | –
8 | CC[C@H](C)[C@H](NC(=O)[C@@H](NC(=O)[C@H](CCCCN)NC(=O)[C@H](CCCNC(=N)N)NC(=O)[C@@H]1CSSC[C@@H]2NC(=O)[C@H](C)NC(=O)[C@H](CCCNC(=N)N)NC(=O)[C@H](CCCCN)NC(=O)[C@H](CO)NC(=O)[C@H](CC(=O)O)NC(=O)[C@@H]3CSSC[C@H](NC(=O)[C@H](CCCNC(=N)N)NC(=O)[C@H](CC(C)C)NC(=O)CNC(=O)[C@H](CCC(=O)O)NC(=O)[C@H](CSSC[C@H](NC(=O)[C@@H](N)Cc4ccc(O)cc4)C(=O)N[C@@H](CCCNC(=N)N)C(=O)N[C@@H](CCCCN)C(=O)N[C@@H](Cc4c[nH]c5ccccc45)C(=O)N[C@@H](CCSC)C(=O)N[C@@H](Cc4c[nH]c5ccccc45)C(=O)N[C@@H]([C@@H](C)O)C(=O)N3)NC2=O)C(=O)N[C@@H](CCCCN)C(=O)N[C@@H](CC(C)C)C(=O)N[C@@H](Cc2c[nH]c3ccccc23)C(=O)N1)[C@@H](C)CC)C(N)=O [compound 91] | – | – | 0.025 µM | – | – | 3.2 µM | 0.06 µM | 0.14 µM | 6 | – | – | – | –
9 | CC[C@H](C)[C@H](NC(=O)[C@@H](NC(=O)[C@H](CCCCN)NC(=O)[C@H](CCCNC(=N)N)NC(=O)[C@@H]1CSSC[C@@H]2NC(=O)[C@H](C)NC(=O)[C@H](CCCNC(=N)N)NC(=O)[C@H](CCCCN)NC(=O)[C@H](CO)NC(=O)[C@H](CC(=O)O)NC(=O)[C@@H]3CSSC[C@H](NC(=O)[C@H](CCCNC(=N)N)NC(=O)[C@H](CC(C)C)NC(=O)CNC(=O)[C@H](CCC(=O)O)NC(=O)[C@H](CSSC[C@H](NC(=O)[C@@H](N)Cc4ccc(O)cc4)C(=O)N[C@@H](CCC(N)=O)C(=O)N[C@@H](CCCCN)C(=O)N[C@@H](Cc4c[nH]c5ccccc45)C(=O)N[C@@H](C)C(=O)N[C@@H](Cc4c[nH]c5ccccc45)C(=O)N[C@@H]([C@@H](C)O)C(=O)N3)NC2=O)C(=O)N[C@@H](CCCCN)C(=O)N[C@@H](CC(C)C)C(=O)N[C@@H](Cc2c[nH]c3ccccc23)C(=O)N1)[C@@H](C)CC)C(N)=O [compound 7] | – | – | 0.094 µM | – | – | > 5 µM | 0.16 µM | 0.28 µM | 3 | – | – | – | –
